{"source": "a melting point compilation (Tetko et al.; mined from patent text by program, amines drawn as free bases though some values may be those of a salt)"}
{"units": {"melting point": "°C"}}
{"smiles": "O=C1c2ccccc2C(=O)N1OS(=O)(=O)c1ccc2ccccc2c1", "melting point": "223 to 225"}
{"smiles": "Cn1c(=O)c(S(C)=O)c(O)c2ccccc21", "note": "(configuration not stated)", "melting point": "197 to 200"}
{"smiles": "CC(C)(C)c1cc(I)c(O)c(C=NO)c1", "melting point": "154 to 156"}
{"smiles": "FC(F)(F)c1cccc(OC(c2ccc(Cl)cc2)c2ncco2)c1", "note": "(configuration not stated)", "melting point": "66 to 67"}
{"smiles": "O=C(O)CCCCCCCCCCn1nc(-c2ccccc2)c(-c2ccccc2)c1-c1ccccc1", "melting point": "81.5 to 84"}
{"smiles": "CC(C)Cn1cnc2c(N)nc3c(c21)CCCN3", "melting point": "231 to 233"}
{"smiles": "CC(CCCC(=O)O)NC(=O)C(C)S", "note": "(configuration not stated)", "melting point": "78 to 79"}
{"smiles": "CC(O)CNCC(O)COc1ccccc1C#N", "note": "(configuration not stated)", "melting point": 108}
{"smiles": "CCN(CC)c1ccc(-n2c(CC(=O)O)c(C(=O)O)c3cc(Oc4ccc(C(F)(F)F)cc4)ccc32)cc1", "melting point": "234 to 236"}
{"smiles": "O=C1C(Cl)=C(Cl)C(=O)N1c1ccc(Oc2ccccc2)cc1", "melting point": "180 to 181"}
{"smiles": "COc1ccc(C=C2c3ccccc3CCc3ccccc32)cc1NS(C)(=O)=O", "melting point": 192}
{"smiles": "CSC(SC)=C1CCC2CC=CC=C2C1=O", "note": "(configuration not stated)", "melting point": "54 to 56"}
{"smiles": "O=C1c2ccccc2C(Cc2ccnc(Br)c2)(Cc2ccnc(Br)c2)c2ccccc21", "melting point": "182 to 183"}
{"smiles": "CN(C)c1ccc(-c2cc(-c3ccnc4c(C(=O)c5cccs5)cnn34)ccc2F)cc1", "melting point": "219 to 221"}
{"smiles": "Brc1cn2c(Br)cnc2c(NCc2ccco2)n1", "melting point": 143}
{"smiles": "CC(=O)OC(CCc1cc(C(C)(C)C)c(O)c(C(C)(C)C)c1)CCc1cc(C(C)(C)C)c(O)c(C(C)(C)C)c1", "melting point": "82 to 85"}
{"smiles": "CCOC(=O)c1cnc2sc3c(n12)CCCC3", "melting point": "75 to 76"}
{"smiles": "CCCCNC(=O)NS(=O)(=O)c1ccccc1-c1ccc(C(=O)OC)o1", "melting point": "145 to 148"}
{"smiles": "CN1CC(CCCl)Sc2ncccc2C1=O", "note": "(configuration not stated)", "melting point": "97 to 100"}
{"smiles": "Brc1cccc(Nc2nc(OCC3CCCCC3)c3[nH]cnc3n2)c1", "melting point": "204 to 207"}
{"smiles": "COc1cc(CCNC(=O)[C@@H](NS(C)(=O)=O)C(C)C)ccc1OCc1cccc2ccccc12", "melting point": "153 to 157"}
{"smiles": "O=C1NC(=O)C(Nc2cccc3ccccc23)S1", "note": "(configuration not stated)", "melting point": "195 to 197"}
{"smiles": "CCOC(=O)C(=CNc1ccn(-c2ccccc2)n1)C(=O)OCC", "melting point": "81 to 82"}
{"smiles": "O=C(Nc1ccc(F)cc1)c1cccc(Cl)n1", "melting point": 98}
{"smiles": "CC(C)(C)OC(=O)NC(C)(C)c1ccc(Br)nc1", "melting point": "100 to 103"}
{"smiles": "COc1ccc2c(c1)C13CCN(C)C(C2)C1(OC)CCC(=O)C3", "note": "(configuration not stated)", "melting point": "152 to 156"}
{"smiles": "Clc1ccc(CN2CC=C(/C=C/c3ccccc3)CC2)cc1Cl", "melting point": "123 to 125"}
{"smiles": "COC(=O)c1ccccc1-c1ncccc1N", "melting point": "188 to 189"}
{"smiles": "CCNC(=O)N(C)c1ccc(C(O)(C(F)(F)Cl)C(F)(F)Cl)cc1", "melting point": "155 to 157"}
{"smiles": "Clc1c(-c2ccccc2)noc1NCC#CI", "melting point": "133 to 135"}
{"smiles": "O=C(CC(F)=C(F)F)NNC(=O)CC(F)=C(F)F", "melting point": "191 to 193"}
{"smiles": "Nc1cnccc1Oc1ccc2[nH]ccc2c1", "melting point": "155 to 157"}
{"smiles": "O=c1c(CCO)cnc2c3ccccc3ccn12", "melting point": "185 to 187"}
{"smiles": "CC/C(=C(\\c1ccc(/C=C/C(=O)O)cc1)c1ccc(OC(=O)CCC(F)(F)F)cc1)c1ccccc1", "melting point": "162 to 163"}
{"smiles": "O=C(NCc1csc(C(F)(F)F)n1)c1ccnc(N2CCN(Cc3ccc(F)cc3)C2=O)c1", "melting point": "66 to 68"}
{"smiles": "CCCc1c(N)c(N)cc2c(=O)cc(C(=O)OC)oc12", "melting point": "221 to 222"}
{"smiles": "C=CCNC(=S)NNCC1CC2c3cccc4[nH]cc(c34)CC2N(C)C1", "note": "(configuration not stated)", "melting point": "207 to 208"}
{"smiles": "Cc1c2c(c(C(=O)c3ccc(C(C)C)cc3)c(C)c1NC(=O)CC(C)(C)C)OC(C)(C)C2", "melting point": "194 to 195"}
{"smiles": "CCC1CC(=O)N(Cc2ccc(N)cc2)N=C1c1ccc(OC)c(OC)c1", "note": "(configuration not stated)", "melting point": 49}
{"smiles": "COc1cccc(C(=O)Nc2ccc(-n3nc(C(F)(F)F)cc3C(F)(F)F)cc2)c1", "melting point": "169 to 172"}
{"smiles": "COc1ccc(Nc2cc([N+](=O)[O-])ccc2C)c(C(=O)O)c1", "melting point": "219 to 221"}
{"smiles": "Cc1nnc(-c2ccc3occ(-c4ccccc4Cl)c3c2)o1", "melting point": "83 to 84"}
{"smiles": "NC(=O)c1ccc(-c2cccc3cc(Cc4cccc(C(F)(F)F)c4)sc23)cc1", "melting point": "175 to 176"}
{"smiles": "CNc1ccnc(C2=Cc3ccccc3CC2)c1", "melting point": "106 to 107"}
{"smiles": "Oc1ccc2nscc2c1", "melting point": "215 to 216"}
{"smiles": "Cc1cc2c(cc1Sc1ccc(C=O)cc1)C(C)(C)CCC2(C)C", "melting point": "98 to 99"}
{"smiles": "C#CCOCc1nnc(Nc2ccc3c(c2)ncn3-c2ccccc2)c2ccccc12", "melting point": "89 to 91"}
{"smiles": "O=S(=O)(Nc1ccc(F)cc1C(=NOc1ccc(Cl)cc1)c1ccccc1)C(F)(F)F", "melting point": "90 to 93"}
{"smiles": "COc1c(C(=O)O)ccc2ccccc12", "melting point": "118 to 122"}
{"smiles": "COc1cc(N)c(Cl)cc1C(=O)N[C@H]1CCN(Cc2cnccn2)C[C@H]1OC", "note": "(relative stereo)", "melting point": 204}
{"smiles": "O=c1[nH]c2ncc(-c3ccc(-c4nc[nH]n4)nc3)nc2n1CC1CCOCC1", "melting point": "353 to 356"}
{"smiles": "COc1cc2c(Oc3cnc4[nH]ccc4c3)ncnc2cc1OCCCN1CCCC1", "melting point": "184 to 186"}
{"smiles": "Cn1nnnc1SCCCCCCCCSc1nnnn1C", "melting point": "52 to 54"}
{"smiles": "COc1cc(C=O)ccc1OCC(=O)OC(C)(C)C", "melting point": "86.8 to 90"}
{"smiles": "O=C(Nc1cccc(S(=O)(=O)NC2CC2)c1)c1cnn2c(C(F)F)cc(-c3ccc(Cl)c(Cl)c3)nc12", "melting point": 254}
{"smiles": "NC(CO)C(c1ccccc1)c1ccccc1", "note": "(configuration not stated)", "melting point": "107 to 108"}
{"smiles": "CC(c1ccc(Oc2ccccc2)cc1)N(O)C(N)=O", "note": "(configuration not stated)", "melting point": "118 to 119"}
{"smiles": "COc1cc2c(cc1OC)OC(C#N)C2", "note": "(configuration not stated)", "melting point": 162}
{"smiles": "Nc1ccc2c3c(cccc13)C(=O)N(C1CCN(Cc3ccccc3)CC1)C2=O", "melting point": "226 to 228"}
{"smiles": "O=C1C2CCCC2=Nc2ccccc2N1Cc1cccc([N+](=O)[O-])c1", "note": "(configuration not stated)", "melting point": "124 to 126"}
{"smiles": "CCCN1CCN(c2nc(C)c(C(=O)NCc3cccnc3)s2)C1=O", "melting point": "109 to 111"}
{"smiles": "COC(=O)c1cc(-c2ccccc2)c(=O)n2c1-c1sccc1S(=O)(=O)C=C2", "melting point": "241 to 243"}
{"smiles": "COc1ccc(CN(CCN(C)CCCNC(=O)NCCCOc2cccc(CN3CCCCC3)c2)c2ccccn2)cc1", "melting point": 120}
{"smiles": "c1ccc(Sc2ccc[nH]2)cc1", "melting point": "86 to 87"}
{"smiles": "CCCCNC(=O)NS(=O)(=O)CCc1c(C2CC2)nn(C)c1-n1ccc2cc(Cl)cnc21", "melting point": "167 to 168"}
{"smiles": "C=CCNC(=O)c1cnc(SC)nc1NC(C)C", "melting point": "159 to 161"}
{"smiles": "Cc1oc(-c2ccco2)nc1COc1ccc(CON=C(CCC(=O)O)c2ccccc2)cc1", "melting point": "124 to 125"}
{"smiles": "Nc1ccc(S(=O)(=O)Nc2ccccc2C(=O)NCCCn2ccnc2)cc1", "melting point": "171 to 175"}
{"smiles": "N#CCNS(=O)(=O)c1ccccc1", "melting point": "81 to 83"}
{"smiles": "CN(C)C=C(C#N)C(=O)c1ccc(C(C)(CN)C(=O)OC(C)(C)C)cc1", "note": "(configuration not stated)", "melting point": "160 to 162"}
{"smiles": "COCc1nccc(SCCCSc2ccc3ncc([N+](=O)[O-])n3n2)c1C", "melting point": "107 to 110"}
{"smiles": "CSc1cn(C)c2ccsc2c1=O", "melting point": "171 to 174"}
{"smiles": "CCOC(=O)CCCCCCOc1cc2c(c(Cl)c1Cl)C(=O)C(C)(C1CCCC1)C2", "note": "(configuration not stated)", "melting point": "47 to 50"}
{"smiles": "CCCCc1nc2cccc(C(=O)O)c2n1Cc1ccc2nc(-c3ccccc3-c3nnn[nH]3)ncc2c1", "melting point": "188 to 191"}
{"smiles": "O=c1c2ccccc2nc(-c2cc(-c3ccccc3)c(N3CCOCC3)s2)n1-c1ccc(Cl)cc1", "melting point": "223 to 224"}
{"smiles": "NS(=O)(=O)c1cc(N(CCCl)CCCl)c([N+](=O)[O-])cc1[N+](=O)[O-]", "melting point": "153 to 154"}
{"smiles": "Cc1oc(-c2ccccc2)nc1COc1cc(CO)ccn1", "melting point": "100 to 101"}
{"smiles": "C[C@@H](NC(=O)c1[nH]c2ccc(Cl)cc2c1S(=O)(=O)c1ccccc1)c1ccccc1", "melting point": 149}
{"smiles": "Cn1nc2nc(C(C)(C)C)[nH]c(=O)c2c1N", "melting point": "285 to 287"}
{"smiles": "Brc1csc(N2CCCCC2)n1", "melting point": 66}
{"smiles": "CCOC(=O)[C@@H](O)[C@@H](NC(=O)c1ccccc1)c1ccccc1", "melting point": "160 to 161"}
{"smiles": "CCOC(=O)COc1cccc(-c2cc(O)c(SCCc3ccccc3)c(=O)o2)c1", "melting point": "116 to 119"}
{"smiles": "O=C(NC1CCN(CCC2CCCCC2)CC1)c1ccccc1", "melting point": "174 to 175"}
{"smiles": "CC(=O)Nc1c(C(=O)c2ccccc2C)[nH]c2cc(Cl)ccc12", "melting point": "140 to 142"}
{"smiles": "N/C(=C1/Sc2ccc(Cl)cc2C1=O)c1ccccc1Cl", "melting point": "199 to 201"}
{"smiles": "CCOC(=O)c1ncc2[nH]c3ccc(-n4cccc4)cc3c2c1C", "melting point": "214 to 217"}
{"smiles": "O=C1CCC(c2ccccc2)(c2ccccc2)C2CN(C(Cc3ccccc3)=NCc3ccccc3)CC12", "note": "(configuration not stated)", "melting point": 165}
{"smiles": "c1ccc(COc2ccc3[nH]cc(Cc4cccnc4)c3c2)cc1", "melting point": 148}
{"smiles": "Cc1ccc(C)n1NC(=O)COc1ccc(C2=NNC(=O)NC2C)cc1Cl", "note": "(configuration not stated)", "melting point": "189 to 190"}
{"smiles": "CC(C)n1nc(-c2cc(C(=O)NCCO)cnc2-c2ccccc2)ccc1=O", "melting point": "165 to 167"}
{"smiles": "Cc1ccc(-c2ccc3c(c2)C=C(C(=O)Nc2ccc(CN(C)C4CCOCC4)cc2)CCN3C)cc1", "melting point": "178 to 181"}
{"smiles": "COc1ccc(NC(=O)CCCC(O)c2ccc(OC)cc2)cc1", "note": "(configuration not stated)", "melting point": "118 to 120"}
{"smiles": "COc1nc(OC)c(C=CC(C)=O)c(OC)n1", "melting point": "98 to 99"}
{"smiles": "CCN(CC)c1nn2ccccc2c1C(C)=O", "melting point": "59.5 to 60"}
{"smiles": "COc1cc(OC(C)(C)C(=O)O)c(/C=C/C(=O)c2ccc(S(N)(=O)=O)cc2)cc1-c1cccs1", "melting point": "164 to 165"}
{"smiles": "CCc1nc(=O)n(C)c2sccc12", "melting point": 156}
{"smiles": "CC(=O)Oc1ccc2c(c1Cl)Sc1ccccc1N2C(C)=O", "melting point": 155}
{"smiles": "CC(C)(C)OC(=O)N1CCCC2(CCN(c3ccc4nc(-c5ccc(F)cc5)c(-c5ccnc6[nH]ccc56)n4n3)CC2)C1", "melting point": "192 to 193"}
{"smiles": "Clc1ccc(-c2nc(-n3ccnc3)oc2CCC2=NCCO2)cc1", "melting point": "120 to 121"}
{"smiles": "Clc1ccc(CNN2C=CN=CC2)cc1", "melting point": "86 to 87"}
{"smiles": "CCCc1nn(C)c2c(=O)[nH]c(-c3cc(S(C)(=O)=O)ccc3OCC)nc12", "melting point": "235 to 236"}
{"smiles": "CC(C)(C)c1nc(-c2n[nH]c(=O)o2)nc(C(C)(C)C)c1O", "melting point": "230 to 232"}
